Test results: patent US20170253607A1, “LONG-ACTING HIV PROTEASE INHIBITOR” (Shionogi & Co., Ltd., priority 2014, published 2017)

Biological target: HIV-1 PR (Human immunodeficiency virus type 1 group M subtype B, UniProt P04585)
Test: HIV-protease inhibitory activity assay (FRET peptide substrate)
Type: biochemical
Settings: Test Example 1
Procedure, shortened: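 Compounds were preincubated with HIV-1 PR (0.83 ng) at room temperature in pH 4.8 NaAc buffer (0.5 M NaCl, EDTA, DTT, Tween 20), then HiLyte Fluor 488/QXL 520 FRET peptide (2 μmol/L final) was added for 60 min. Fluorescence was read at 485/535 nm, and IC50 was fitted by four-parameter logistic regression.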

COc1ccc(S(=O)(=O)N(CC(C)C)CC(O)C(Cc2ccc(N(Cc3ccccc3-c3sc4c(c3C(=O)O)CC(C)(C)CC4)CC(C)C)cc2)NC(=O)OC2COC3(C)OCCC23)cc1 (stereo not drawn) [Compound I-422]
IC50: 8.58 nM

COc1ccc(S(=O)(=O)N(CC(C)C)CC(O)C(Cc2ccc(NCc3cccc(-c4ccccc4)c3-c3sc4c(c3C(=O)O)CC(C)(C)CC4)cc2)NC(=O)OC2COC3(C)OCCC23)cc1 (stereo not drawn) [Compound I-529]
IC50: 4.98 nM

COc1ccc(S(=O)(=O)N(CC(C)C)CC(O)C(Cc2ccc(NCc3cc(Cl)ccc3C(=O)Nc3sc4c(c3C(=O)O)CC(C)(C)CC4)cc2)NC(=O)OC2COC3(C)OCCC23)cc1 (stereo not drawn) [Compound I-656]
IC50: 6.57 nM

COc1ccc(S(=O)(=O)N(CC(C)C)CC(O)C(Cc2ccc(N(C)CC3=C(c4sc5c(c4C(=O)O)CC(C)(C)CC5)C4CC(C3)C4(C)C)cc2)NC(=O)OC2COC3(C)OCCC23)cc1 (stereo not drawn) [Compound I-628]
IC50: 5.03 nM

COc1ccc(S(=O)(=O)N(CC(C)C)CC(O)C(Cc2ccc(OCc3ccccc3-c3sc4c(c3C(=O)NS(=O)(=O)C3CC3)CC(C)(C)CC4)cc2)NC(=O)OC2COC3(C)OCCC23)cc1 (stereo not drawn) [Compound I-58]
IC50: 1.11 nM

COc1ccc(S(=O)(=O)N(CC(C)C)CC(O)C(Cc2ccc(NCc3ccccc3-c3cccc4[nH]c(C(=O)O)cc34)cc2)NC(=O)OC2COC3(C)OCCC23)cc1 (stereo not drawn) [Compound I-502]
IC50: 1.87 nM

COc1ccc(S(=O)(=O)N(CC(C)C)CC(O)C(Cc2ccc(OC3CCN(C(=O)c4sc5c(c4C(=O)O)CC(C)(C)CC5)C3)cc2)NC(=O)OC2COC3(C)OCCC23)cc1 (stereo not drawn) [Compound I-245]
IC50: 2.01 nM

COc1ccc(S(=O)(=O)N(CC2CCCC2)CC(O)C(Cc2ccc(OCc3ccccc3Cn3nc(C(=O)O)c4c3CCC(C)(C)C4)cc2)NC(=O)OC2COC3(C)OCCC23)cc1 (stereo not drawn) [Compound I-221]
IC50: 2.11 nM

COc1ccc(S(=O)(=O)N(CC(C)C)CC(O)C(Cc2ccc(NCc3cc(-c4ccc(-c5ccccc5)cc4)ccc3-c3sc4c(c3C(=O)O)CC(C)(C)CC4)cc2)NC(=O)OC2COC3(C)OCCC23)cc1 (stereo not drawn) [Compound I-721]
IC50: 2.24 nM

COc1ccc(S(=O)(=O)N(CC(C)C)CC(O)C(Cc2ccc(N3CCC(C(=O)Nc4sc5c(c4C(=O)O)CC(C)(C)CC5)C3)cc2)NC(=O)OC2COC3OCCC23)cc1 (stereo not drawn) [Compound I-865]
IC50: 2.21 nM

COc1ccc(S(=O)(=O)N(CC(C)C)CC(O)C(Cc2ccc(N(C)CC3CCCC3c3sc4c(c3C(=O)O)CC(C)(C)CC4)cc2)NC(=O)OC2COC3(C)OCCC23)cc1 (stereo not drawn) [Compound I-470]
IC50: 2.67 nM

COc1ccc(S(=O)(=O)N(CC(C)C)C[C@@H](O)[C@H](Cc2ccc(OCc3ccccc3-c3sc4c(c3C(=O)O)CC(C)(C)CC4)cc2)NC(=O)O[C@@H]2C[C@@H]3[C@@H](OC(C)=O)CO[C@@H]3C2)cc1 [Compound I-28]
IC50: 1.63 nM

COc1ccc(S(=O)(=O)N(CC(C)C)CC(O)C(Cc2ccc(N(C)CC3CCCCC3c3sc4c(c3C(=O)O)CC(C)(C)CC4)cc2)NC(=O)OC2COC3(C)OCCC23)cc1 (stereo not drawn) [Compound I-375]
IC50: 3.87 nM

COc1ccc(S(=O)(=O)N(CC(C)C)CC(O)C(Cc2ccc(OCCNC(=O)C(=NO)c3cc(O)cc(Cl)c3)cc2)NC(=O)OC2COC3(C)OCCC23)cc1 (stereo not drawn) [Compound I-67]
IC50: 1.88 nM

CNC(=O)c1ccc(CNc2ccc(CC(NC(=O)OC3COC4(C)OCCC34)C(O)CN(CC(C)C)S(=O)(=O)c3ccc(OC)cc3)cc2)c(-c2sc3c(c2C(=O)O)CC(C)(C)CC3)c1 (stereo not drawn) [Compound I-416]
IC50: 1.63 nM

COc1ccc(S(=O)(=O)N(CC(C)C)CC(O)C(Cc2ccc(OC3CCCN(Cc4sc5c(c4C(=O)O)CC(C)(C)CC5)C3)cc2)NC(=O)OC2COC3(C)OCCC23)cc1 (stereo not drawn) [Compound I-198]
IC50: 1.95 nM

COc1ccc(S(=O)(=O)N(CC(C)C)CC(O)C(Cc2ccc(NCc3ncccc3C(=O)Nc3sc4c(c3C(=O)O)CC(C)(C)CC4)cc2)NC(=O)OC2COC3(C)OCCC23)cc1 (stereo not drawn) [Compound I-687]
IC50: 2.48 nM

CC1(C)CCc2sc(-c3ccc(CNC(=O)OC[C@]45OCC[C@H]4[C@@H](OC(=O)N[C@@H](Cc4ccccc4)[C@H](O)CN(CC(F)F)S(=O)(=O)c4ccc6ncsc6c4)CO5)cc3)c(C(=O)O)c2C1 [Compound I-32]
IC50: 1.37 nM

COc1ccc(S(=O)(=O)N(CC(C)C)CC(O)C(Cc2ccc(N3CCC(C(=O)Nc4sc5c(c4C(=O)O)CC(C)(C)CC5)C3)cc2)NC(=O)OC2COC3(C)OCCC23)cc1 (stereo not drawn) [Compound I-645]
IC50: 2.51 nM

COc1ccc(S(=O)(=O)N(CC(C)C)CC(O)C(Cc2ccc(NCc3ccccc3-c3c(C(=O)O)cnc4sccc34)cc2)NC(=O)OC2COC3(C)OCCC23)cc1 (stereo not drawn) [Compound I-504]
IC50: 1.93 nM

COc1ccc(S(=O)(=O)N(CC(C)C)CC(O)C(Cc2ccc(-c3ccc(Cn4nc5c(c4C(=O)O)CC(C)(C)CC5)cc3)cc2)NC(=O)OC2COC3(C)OCCC23)cc1 (stereo not drawn) [Compound I-217]
IC50: 1.95 nM

CC1(C)CCc2sc(-c3ccc(C(F)(F)F)cc3CNc3ccc(CC(NC(=O)OC4COC5OCCC45)C(O)CN(CC4CCC4)S(=O)(=O)c4ccc5c(c4)OCO5)cc3)c(C(=O)O)c2C1 (stereo not drawn) [Compound I-875]
IC50: 6.78 nM

COc1ccc(S(=O)(=O)N(CC(C)C)CC(O)C(Cc2ccc(OCCn3ncc(C(=O)O)c3OC(C)C)cc2)NC(=O)OC2COC3(C)OCCC23)cc1 (stereo not drawn) [Compound I-309]
IC50: 2 nM

COc1ccc(S(=O)(=O)N(CC(C)C)CC(O)C(Cc2ccc(OC3CCN(c4ccc(C#N)cc4-c4sc5c(c4C(=O)O)CC(C)(C)CC5)C3)cc2)NC(=O)OC2COC3(C)OCCC23)cc1 (stereo not drawn) [Compound I-200]
IC50: 5.08 nM

COc1ccc(S(=O)(=O)N(CC(C)C)CC(O)C(Cc2ccc(NCc3ccc(Cl)cc3C(=O)Nc3sc4c(c3C(=O)O)CC(C)(C)CC4)cc2)NC(=O)OC2COC3(C)OCCC23)cc1 (stereo not drawn) [Compound I-657]
IC50: 8.14 nM

CC(C)CN(CC(O)C(Cc1ccc(OCc2ccccc2-c2ccccc2C(=O)N(C)C)cc1)NC(=O)OC1COC2(C)OCCC12)S(=O)(=O)c1ccc2ncsc2c1 (stereo not drawn) [Compound I-160]
IC50: 0.96 nM

COc1ccc(S(=O)(=O)N(CC(C)C)CC(O)C(Cc2ccc(NCC3CC(C)(C)CCC3c3sc4c(c3C(=O)O)CC(C)(C)CC4)cc2)NC(=O)OC2COC3(C)OCCC23)cc1 (stereo not drawn) [Compound I-765]
IC50: 2.96 nM

COc1ccc(S(=O)(=O)N(CC(C)C)CC(O)C(Cc2ccc(OCC3CCN(c4ccccc4-c4sc5c(c4C(=O)O)CC(C)(C)CC5)C3)cc2)NC(=O)OC2COC3(C)OCCC23)cc1 (stereo not drawn) [Compound I-204]
IC50: 2.04 nM

CC(C)CN(CC(O)C(Cc1ccc(Oc2ccc(-c3ccc(F)cc3F)cc2C(=O)O)cc1)NC(=O)OC1COC2(C)OCCC12)S(=O)(=O)c1ccc2ncsc2c1 (stereo not drawn) [Compound I-59]
IC50: 1.19 nM

COc1ccc(S(=O)(=O)N(CC(C)C)CC(O)C(Cc2ccc(N(Cc3ccccc3-c3sc4c(c3C(=O)O)CC(C)(C)CC4)CC3CCC3)cc2)NC(=O)OC2COC3(C)OCCC23)cc1 (stereo not drawn) [Compound I-463]
IC50: 5.13 nM

COc1ccc(S(=O)(=O)N(CC(C)C)CC(O)C(Cc2ccc(NCc3ccccc3-c3c(C(=O)O)[nH]c4ccccc34)cc2)NC(=O)OC2COC3(C)OCCC23)cc1 (stereo not drawn) [Compound I-660]
IC50: 2.12 nM

COc1ccc(S(=O)(=O)N(CC(C)C)CC(O)C(Cc2ccc(NCc3cccnc3-c3sc4c(c3C(=O)O)CC(C)(C)CC4)cc2)NC(=O)OC2COC3(C)OCCC23)cc1 (stereo not drawn) [Compound I-128]
IC50: 2.19 nM

COc1ccc(S(=O)(=O)N(CC(C)C)CC(O)C(Cc2ccc(NCc3ccc(OCC(=O)O)cc3)cc2)NC(=O)OC2COC3(C)OCCC23)cc1 (stereo not drawn) [Compound I-321]
IC50: 1.9 nM

COc1ccc(S(=O)(=O)N(CC(C)C)CC(O)C(Cc2ccc(NCc3cc(C)cc(-c4sc5c(c4C(=O)O)CC(C)(C)CC5)c3)cc2)NC(=O)OC2COC3(C)OCCC23)cc1 (stereo not drawn) [Compound I-549]
IC50: 1.55 nM

COc1ccc(S(=O)(=O)N(CC(C)C)CC(O)C(Cc2ccc(NCc3ccc(-c4sc5c(c4C(=O)O)CC(C)(C)CC5)cc3F)cc2)NC(=O)OC2COC3(C)OCCC23)cc1 (stereo not drawn) [Compound I-282]
IC50: 4.04 nM

COc1ccc(S(=O)(=O)N(CC(C)C)CC(O)C(Cc2ccc(N(C)Cc3cc(C(F)(F)F)ccc3C(=O)Nc3sc4c(c3C(=O)O)CC(C)(C)CC4)cc2)NC(=O)OC2COC3(C)OCCC23)cc1 (stereo not drawn) [Compound I-734]
IC50: 15.4 nM

COc1ccc(S(=O)(=O)N(CC(C)C)CC(O)C(Cc2ccc(N(C)Cc3cc(C)ccc3C(=O)Nc3sc4c(c3C(=O)O)CC(C)(C)CC4)cc2)NC(=O)OC2COC3(C)OCCC23)cc1 (stereo not drawn) [Compound I-746]
IC50: 2.81 nM

COc1ccc(S(=O)(=O)N(CC(C)C)CC(O)C(Cc2ccc(N3CCC(Cc4ccccc4-c4sc5c(c4C(=O)O)CC(C)(C)CC5)C3)cc2)NC(=O)OC2COC3(C)OCCC23)cc1 (stereo not drawn) [Compound I-668]
IC50: 7.06 nM

COc1ccc(S(=O)(=O)N(CC(C)C)CC(O)C(Cc2ccc(NCc3cc(Cl)ccc3-c3sc4c(c3C(=O)O)CC(C)(C)CC4)cc2)NC(=O)OC2COC3(C)OCCC23)cc1 (stereo not drawn) [Compound I-547]
IC50: 2.28 nM

CC(C)CN(CC(O)C(Cc1ccc(N(C)Cc2ccccc2C(=O)Nc2sc3c(c2C(=O)O)CC(C)(C)CC3)cc1)NC(=O)OC1COC2OCCC12)S(=O)(=O)c1ccc2c(c1)OCO2 (stereo not drawn) [Compound I-879]
IC50: 3.78 nM

COc1ccc(S(=O)(=O)N(CC(C)C)C[C@@H](O)[C@H](Cc2ccc(NC[C@@H]3CCCC[C@@H]3c3sc4c(c3C(=O)O)CC(C)(C)CC4)cc2)NC(=O)O[C@H]2CO[C@@]3(C)OCC[C@@H]23)cc1 [Compound I-246]
IC50: 2.07 nM

CC(C)CN(CC(O)C(Cc1ccc(OCc2ccc(C(=O)O)c(-c3ccc(F)cc3F)n2)cc1)NC(=O)OC1COC2(C)OCCC12)S(=O)(=O)c1ccc2ncsc2c1 (stereo not drawn) [Compound I-156]
IC50: 1.3 nM

CCCCCCCCCN(Cc1ccccc1-c1sc2c(c1C(=O)O)CC(C)(C)CC2)c1ccc(CC(NC(=O)OC2COC3(C)OCCC23)C(O)CN(CC(C)C)S(=O)(=O)c2ccc(OC)cc2)cc1 (stereo not drawn) [Compound I-458]
IC50: 51 nM

COc1ccc(S(=O)(=O)N(CC(C)C)CC(O)C(Cc2ccc(NCc3ccccc3-c3ccc4[nH]c(C(=O)O)cc4c3)cc2)NC(=O)OC2COC3(C)OCCC23)cc1 (stereo not drawn) [Compound I-897]
IC50: 2.46 nM

COc1ccc(S(=O)(=O)N(CC(C)C)CC(O)C(Cc2ccc(N(C)Cc3ccc(OC)c(-c4sc5c(c4C(=O)O)CC(C)(C)CC5)c3)cc2)NC(=O)OC2COC3(C)OCCC23)cc1 (stereo not drawn) [Compound I-464]
IC50: 2.52 nM
